Results taken from ChEMBL document CHEMBL1144507, “Synthesis and antifungal activity of (Z)-5-arylidenerhodanines” (2007).
Values after ≈ are worked out from the molar mass of the structure shown.

Tests used:
[1] = system: Trichophyton benhamiae; test: Antifungal activity against Trichophyton mentagrophytes C364 after 48 hrs; assay type: functional, Arthroderma benhamiae
[2] = system: Trichophyton benhamiae; test: Antifungal activity against Trichophyton mentagrophytes C943 after 48 hrs; assay type: functional, Arthroderma benhamiae
[3] = system: Trichophyton rubrum; test: Antifungal activity against Trichophyton rubrum C135 after 48 hrs; assay type: functional
[4] = system: Trichophyton rubrum; test: Antifungal activity against Trichophyton rubrum C140 after 48 hrs; assay type: functional
[5] = system: Trichophyton rubrum; test: Antifungal activity against Trichophyton rubrum C136 after 48 hrs; assay type: functional
[6] = system: Trichophyton benhamiae; test: Antifungal activity against Trichophyton mentagrophytes C738 after 48 hrs; assay type: functional, Arthroderma benhamiae
[7] = system: Trichophyton rubrum; test: Antifungal activity against Trichophyton rubrum C137 after 48 hrs; assay type: functional
[8] = system: Trichophyton benhamiae; test: Antifungal activity against Trichophyton mentagrophytes C539 after 48 hrs; assay type: functional, Arthroderma benhamiae
[9] = system: Trichophyton rubrum; test: Antifungal activity against Trichophyton rubrum C139 after 48 hrs; assay type: functional
[10] = system: Trichophyton rubrum; test: Antifungal activity against Trichophyton rubrum C110 after 48 hrs; assay type: functional
[11] = system: Trichophyton benhamiae; test: Antifungal activity against Trichophyton mentagrophytes C108 after 48 hrs; assay type: functional, Arthroderma benhamiae
[12] = system: Candida albicans; test: Antifungal activity against Candida albicans ATCC 10231 after 48 hrs; assay type: functional; details: ATCC 10231, 48 h
[13] = system: Aspergillus fumigatus; test: Antifungal activity against Aspergillus fumigatus ATCC 26934 after 48 hrs; assay type: functional; details: ATCC 26934, 48 h
[14] = system: Aspergillus niger; test: Antifungal activity against Aspergillus niger ATCC 9029 after 48 hrs; assay type: functional; details: ATCC 9029, 48 h
[15] = system: Trichophyton rubrum; test: Antifungal activity against Trichophyton rubrum C113 after 48 hrs; assay type: functional
[16] = system: Aspergillus flavus; test: Antifungal activity against Aspergillus flavus ATCC 9170 after 48 hrs; assay type: functional; details: ATCC 9170, 48 h
[17] = system: Cryptococcus neoformans; test: Antifungal activity against Cryptococcus neoformans ATCC 32264 after 48 hrs; assay type: functional; details: ATCC 32264, 48 h
[18] = system: Nannizzia gypsea; test: Antifungal activity against Microsporum gypseum C115 after 48 hrs; assay type: functional
[19] = system: Saccharomyces cerevisiae; test: Antifungal activity against Saccharomyces cerevisiae ATCC 9763 after 48 hrs; assay type: functional; details: ATCC 9763, 48 h
[20] = system: Trichophyton benhamiae; test: Antifungal activity against Trichophyton mentagrophytes ATCC 9972 after 48 hrs; assay type: functional, Arthroderma benhamiae; details: ATCC 9972, 48 h

MIC [1] [µg/mL]	MIC [2] [µg/mL]	MIC [3] [µg/mL]	MIC [4] [µg/mL]	MIC [5] [µg/mL]	MIC [6] [µg/mL]	MIC [7] [µg/mL]	MIC [8] [µg/mL]	MIC [9] [µg/mL]	MIC [10] [µg/mL]	MIC [11] [µg/mL]	MIC [12] [µg/mL]	MIC [13] [µg/mL]	MIC [14] [µg/mL]	MIC [15] [µg/mL]	MIC [16] [µg/mL]	MIC [17] [µg/mL]	MIC [18] [µg/mL]	MIC [19] [µg/mL]	MIC [20] [µg/mL]	Structure (SMILES)
0.006 (≈ 0.0206 µM)	0.006 (≈ 0.0206 µM)	0.006 (≈ 0.0206 µM)	0.003 (≈ 0.0103 µM)	0.006 (≈ 0.0206 µM)	0.006 (≈ 0.0206 µM)	0.006 (≈ 0.0206 µM)	0.006 (≈ 0.0206 µM)	0.012 (≈ 0.0412 µM)	0.006 (≈ 0.0206 µM)	0.006 (≈ 0.0206 µM)	–	–	–	–	–	–	–	–	–	CN(C/C=C/C#CC(C)(C)C)Cc1cccc2ccccc12 [TERBINAFINE]
0.97 (≈ 3.35 µM)	0.97 (≈ 3.35 µM)	3.9 (≈ 13.5 µM)	3.57 (≈ 12.3 µM)	3.9 (≈ 13.5 µM)	1.95 (≈ 6.74 µM)	1.95 (≈ 6.74 µM)	1.95 (≈ 6.74 µM)	3.9 (≈ 13.5 µM)	3.9 (≈ 13.5 µM)	1.95 (≈ 6.74 µM)	250 (≈ 864 µM)	> 250	> 250	3.9 (≈ 13.5 µM)	> 250	15.6 (≈ 53.9 µM)	3.9 (≈ 13.5 µM)	250 (≈ 864 µM)	3.9 (≈ 13.5 µM)	O=C1NC(=S)S/C1=C\c1ccccc1C(F)(F)F
